Measured values: PubChem BioAssay AID248 (DTP/NCI, 2004)
Several values for one entry are separate records, joined by “and”; a condition that tells them apart may be missing. Identical values can stand only once. Inconclusive results and toxic doses are left out. Rule as the data show it: active = T/C of 150% or more; inactive = T/C below 125%. Square brackets hold non-standard residues; d marks the D form. Peptide text beside a SMILES is read from it. * marks the point of attachment. ξ: configuration not given here. Tos = Cc1ccc(S(=O)(=O)*)cc1; ξY = NC(Cc1ccc(O)cc1)C(=O)O

Test system: L1210 leukemia ip in BDF1 mice, survival T/C
Assay: NCI In Vivo Anticancer Drug Screen. Data for tumor model L1210 Leukemia (intraperitoneal) in B6D2F1 (BDF1) mice
Conditions: endpoint: mean survival time, higher = longer survival
Procedure, shortened: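 Mice bearing the transplanted tumor received compound or vehicle. Survival of the treated group was divided by that of the vehicle-treated control group to give the ratio.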

[1] = dose: 100.0 mg/kg/injection, schedule: Q01DX001 (ip), vehicle: carboxymethylcellulose (CMC)
[2] = dose: 200.0 mg/kg/injection, schedule: Q01DX001 (ip), vehicle: carboxymethylcellulose (CMC)
[3] = dose: 400.0 mg/kg/injection, schedule: Q01DX001 (ip), vehicle: carboxymethylcellulose (CMC)
[4] = dose: 12.5 mg/kg/injection, schedule: Q01DX009 (ip), vehicle: Klucel (hydroxypropylcellulose) (HPC)
[5] = dose: 25.0 mg/kg/injection, schedule: Q01DX009 (ip), vehicle: Klucel (hydroxypropylcellulose) (HPC)
[6] = dose: 100.0 mg/kg/injection, schedule: Q01DX001 (ip), vehicle: saline with Tween-80
[7] = dose: 200.0 mg/kg/injection, schedule: Q01DX001 (ip), vehicle: saline with Tween-80
[8] = dose: 400.0 mg/kg/injection, schedule: Q01DX001 (ip), vehicle: saline with Tween-80
[9] = dose: 50.0 mg/kg/injection, schedule: Q01DX009 (ip), vehicle: saline
[10] = dose: 100.0 mg/kg/injection, schedule: Q01DX001 (ip), vehicle: saline
[11] = dose: 200.0 mg/kg/injection, schedule: Q01DX001 (ip), vehicle: saline
[12] = dose: 100.0 mg/kg/injection, schedule: Q04DX003 (ip), vehicle: saline
[13] = dose: 200.0 mg/kg/injection, schedule: Q04DX003 (ip), vehicle: saline
[14] = dose: 400.0 mg/kg/injection, schedule: Q04DX003 (ip), vehicle: saline
[15] = dose: 100.0 mg/kg/injection, schedule: Q01DX009 (ip), vehicle: saline
[16] = dose: 200.0 mg/kg/injection, schedule: Q01DX009 (ip), vehicle: saline
[17] = dose: 400.0 mg/kg/injection, schedule: Q01DX001 (ip), vehicle: saline
[18] = dose: 400.0 mg/kg/injection, schedule: Q01DX009 (ip), vehicle: saline
[19] = dose: 100.0 mg/kg/injection, schedule: Q04DX002 (ip), vehicle: other
[20] = dose: 200.0 mg/kg/injection, schedule: Q04DX002 (ip), vehicle: other
[21] = dose: 400.0 mg/kg/injection, schedule: Q04DX002 (ip), vehicle: other
[22] = dose: 200.0 mg/kg/injection, schedule: Q01DX009 (ip), vehicle: saline with Tween-80
[23] = dose: 400.0 mg/kg/injection, schedule: Q01DX009 (ip), vehicle: saline with Tween-80
[24] = dose: 100.0 mg/kg/injection, schedule: Q04DX003 (ip), vehicle: saline with Tween-80
[25] = dose: 200.0 mg/kg/injection, schedule: Q04DX003 (ip), vehicle: saline with Tween-80
[26] = dose: 400.0 mg/kg/injection, schedule: Q04DX003 (ip), vehicle: saline with Tween-80
[27] = dose: 100.0 mg/kg/injection, schedule: Q04DX003 (ip), vehicle: other
[28] = dose: 200.0 mg/kg/injection, schedule: Q04DX003 (ip), vehicle: other
[29] = dose: 400.0 mg/kg/injection, schedule: Q04DX003 (ip), vehicle: other

Measured: T/C

CCCCCCCCC(=O)N(CC(C)C)CC(C)C
inactive: [1] 93 % of control | dose: 100.0 mg/kg/injection, schedule: Q01DX009 (ip), vehicle: carboxymethylcellulose (CMC) 101 % of control | dose: 100.0 mg/kg/injection, schedule: Q04DX002 (ip), vehicle: carboxymethylcellulose (CMC) 94 % of control | dose: 100.0 mg/kg/injection, schedule: Q04DX003 (ip), vehicle: carboxymethylcellulose (CMC) 101 % of control | [2] 91 % of control | dose: 200.0 mg/kg/injection, schedule: Q01DX009 (ip), vehicle: carboxymethylcellulose (CMC) 101 % of control and 106 % of control | dose: 200.0 mg/kg/injection, schedule: Q04DX002 (ip), vehicle: carboxymethylcellulose (CMC) 102 % of control | dose: 200.0 mg/kg/injection, schedule: Q04DX003 (ip), vehicle: carboxymethylcellulose (CMC) 101 % of control | [3] 93 % of control | dose: 400.0 mg/kg/injection, schedule: Q04DX002 (ip), vehicle: carboxymethylcellulose (CMC) 97 % of control | dose: 400.0 mg/kg/injection, schedule: Q04DX003 (ip), vehicle: carboxymethylcellulose (CMC) 104 % of control

C/C(Cc1cc(C)nc(N)n1)=N\Nc1ccccc1
inactive: dose: 6.25 mg/kg/injection, schedule: Q01DX009 (ip), vehicle: Klucel (hydroxypropylcellulose) (HPC) 93 % of control | [4] 115 % of control | [5] 91 % of control

O=C1c2ccccc2C(=O)c2[nH]c(-c3ccccc3)cc21
inactive: [6] 94 % of control | [7] 94 % of control | [8] 94 % of control

CCN(CC)CCOc1ccccc1OC
inactive: dose: 12.0 mg/kg/injection, schedule: Q01DX009 (ip), vehicle: saline 107 % of control | dose: 25.0 mg/kg/injection, schedule: Q01DX009 (ip), vehicle: saline 101 % of control | [9] 101 % of control | [10] 93 % of control | [11] 95 % of control

O=C1CSC(=S)N1c1ccc2c(c1)OCO2
inactive: [12] 94 % of control | [13] 90 % of control | [14] 95 % of control

Clc1c(Cl)c(/C=N/Nc2ccccc2)c(Cl)c(Cl)c1/C=N\Nc1ccccc1
inactive: dose: 50.0 mg/kg/injection, schedule: Q01DX001 (ip), vehicle: saline 101 % of control | [10] 95 % of control | [15] 98 % of control | [11] 92 % of control | [16] 96 % of control | [17] 95 % of control | [18] 96 % of control

O=C([O-])CO.[Co+3].[NH2-].[NH2-].[NH2-].[NH2-].[NH2-].[O-][Cl+3]([O-])([O-])O
inactive: dose: 100.0 mg/kg/injection, schedule: Q04DX002 (ip), vehicle: saline 103 % of control | dose: 200.0 mg/kg/injection, schedule: Q04DX002 (ip), vehicle: saline 100 % of control | dose: 400.0 mg/kg/injection, schedule: Q04DX002 (ip), vehicle: saline 103 % of control

CCOc1ccc(-n2c(=O)c(N=Nc3ccc(Cl)cc3)c(O)n(-c3ccccc3OC)c2=S)cc1
inactive: dose: 37.5 mg/kg/injection, schedule: Q01DX001 (ip), vehicle: Klucel (hydroxypropylcellulose) (HPC) 92 % of control | dose: 75.0 mg/kg/injection, schedule: Q01DX001 (ip), vehicle: Klucel (hydroxypropylcellulose) (HPC) 113 % of control | dose: 150.0 mg/kg/injection, schedule: Q01DX001 (ip), vehicle: Klucel (hydroxypropylcellulose) (HPC) 103 % of control

O=c1oc(-c2ccccc2)c(-c2ccccc2)o1
inactive: [19] 100 % of control | [20] 103 % of control | [21] 96 % of control

N#CSCC(=O)OC1CCCCC1
inactive: dose: 5.0 mg/kg/injection, schedule: Q01DX001 (ip), vehicle: saline 98 % of control | dose: 10.0 mg/kg/injection, schedule: Q01DX001 (ip), vehicle: saline 96 % of control | dose: 20.0 mg/kg/injection, schedule: Q01DX001 (ip), vehicle: saline 96 % of control | dose: 40.0 mg/kg/injection, schedule: Q01DX001 (ip), vehicle: saline 93 % of control

O=C(OCC1OCOC1C1OCOC1COC(=O)c1ccccc1)c1ccccc1 (stereo unspecified)
inactive: [10] 96 % of control | [11] 94 % of control | [17] 88 % of control

OCC1OCOC2COCOC12 (stereo unspecified)
inactive: dose: 100.0 mg/kg/injection, schedule: Q01DX009 (ip), vehicle: saline with Tween-80 94 % of control | [22] 98 % of control | [23] 104 % of control

Cc1ncc(C(=O)c2ccccc2)n1Cc1ccccc1
inactive: [6] 88 % of control | [24] 94 % of control | [7] 90 % of control | [22] 94 % of control and 107 % of control | [25] 92 % of control | [8] 95 % of control | [23] 96 % of control and 100 % of control | [26] 90 % of control

C[N+]1(C)C2CC(=O)CC1C1CC12 (stereo unspecified)
inactive: [9] 91 % of control | [15] 93 % of control | [12] 100 % of control | [16] 88 % of control | [13] 103 % of control

O=[N+]([O-])c1cc(Cl)cc(Cl)c1O
inactive: [4] 91 % of control | dose: 12.5 mg/kg/injection, schedule: Q04DX002 (ip), vehicle: Klucel (hydroxypropylcellulose) (HPC) 90 % of control | [5] 94 % of control | dose: 25.0 mg/kg/injection, schedule: Q04DX002 (ip), vehicle: Klucel (hydroxypropylcellulose) (HPC) 97 % of control | dose: 50.0 mg/kg/injection, schedule: Q04DX002 (ip), vehicle: Klucel (hydroxypropylcellulose) (HPC) 94 % of control

ClCCN(CCCl)c1ccc(C=Nc2ccc(-c3csc(Cc4ccccc4)n3)c(Cl)c2)cc1
inactive: [1] 93 % of control | [2] 88 % of control | [3] 87 % of control

CCCCOc1c(Cl)c(Cl)c(OP(=O)(OCCCC)OCCCC)c(Cl)c1Cl
inactive: [19] 103 % of control | [20] 88 % of control | [21] 103 % of control

COc1cc([N+](=O)[O-])cc2c(C)cc(=O)[nH]c12
inactive: [10] 95 % of control | [15] 103 % of control | [11] 99 % of control | [16] 92 % of control | [17] 93 % of control | [18] 93 % of control

CN(CCO)N=Nc1ccccc1C#N
inactive: dose: 12.5 mg/kg/injection, schedule: Q01DX009 (ip), vehicle: other 103 % of control | dose: 25.0 mg/kg/injection, schedule: Q01DX009 (ip), vehicle: other 91 % of control | dose: 25.0 mg/kg/injection, schedule: Q04DX003 (ip), vehicle: other 95 % of control | dose: 50.0 mg/kg/injection, schedule: Q04DX003 (ip), vehicle: other 93 % of control | [27] 95 % of control | [28] 98 % of control | [29] 98 % of control

COc1ccc(CCN=c2c3ccccc3ccc3ccccc23)cc1OC
inactive: [12] 111 % of control | [13] 97 % of control | [14] 105 % of control

CCOc1nc(Cl)nc2nc[nH]c12
inactive: [10] 102 % of control | [11] 102 % of control | [17] 96 % of control

O=C1OC(=O)C2C3CC(C12)C1C2C=CC(C2)C31 (stereo unspecified)
inactive: [24] 91 % of control | [25] 95 % of control | [26] 103 % of control

COC(=O)C(Cc1ccc(O)cc1)NC(=O)CNS(=O)(=O)c1ccc(C)cc1 (stereo not drawn) (Tos-Gly-[ξY]-OMe)
inactive: [27] 105 % of control | [28] 94 % of control | [29] 104 % of control

CCCCN(CCCC)CCNCC(Cc1ccccc1)c1ccccc1 (stereo unspecified)
inactive: dose: 100.0 mg/kg/injection, schedule: Q04DX002 (ip), vehicle: Klucel (hydroxypropylcellulose) (HPC) 93 % of control
